Results published in PMC12040169 (PLOS Biology, 2025).

Test: in vitro
Conditions: human, hela cells, % viability

Compound | viability at 28.5 h, 10 µM [%]
CC(=O)Nc1ccc2c(CSc3nnc(-c4ccco4)n3C)cc(=O)oc2c1 [CBK297534] | 91.7
O=C(COc1ccc(C(=O)c2ccc(F)cc2)cc1)c1ccc2c(c1)OCCO2 [CBK297536] | 111
Cc1c(C(=O)O)sc2nc(C=Cc3ccc(OCCC(C)C)cc3)[nH]c(=O)c12 [CBK297539] | 94
CSc1nc2ccc(NS(=O)(=O)c3ccc(Cl)c(C(=O)O)c3)cc2s1 [CBK297541] | 82.6
O=C(Cn1cnc2ccc([N+](=O)[O-])cc2c1=O)Nc1ccc(C(=O)O)cc1 [CBK297542] | 85.5
COc1ccc(O)c(C(=O)c2cnn(C(=O)c3ccc(C)cc3)c2)c1 [CBK297546] | 86.3
CCCn1c(SCC(=O)NCc2ccc(OC)cc2)n[nH]c1=O [CBK297549] | 90.2
CC(Sc1ccc(S(=O)(=O)N2CCN(C)CC2)cn1)C(=O)Nc1ccc(C(C)(C)C)cc1 (stereo not shown) [CBK297551] | 106
Cc1nn(-c2ccccc2)c2sc(C(=O)N3CCN(C(=O)c4ccccc4)CC3)cc12 [CBK297554] | 96.1
CCCn1c(N)c(C(=O)CSc2ncnc3sc4c(c23)CCCC4)c(=O)[nH]c1=O [CBK297556] | 77.8
CC(C)(C)c1cc(NC(=O)Cn2nc(C(=O)O)c3ccccc3c2=O)n(-c2ccccc2)n1 [CBK297557] | 85.1
Cc1nc(-c2ccc(CCNC(=O)c3cc(O)nc4ccccc34)s2)cs1 [CBK297720] | 94.2
COc1cc(Nc2cc(C)nc3ncnn23)ccc1N1CCCC1=O [CBK297725] | 102
O=C(O)c1cccc(-c2nc(-c3ccc(S(=O)(=O)N4CCOCC4)cc3)cs2)c1 [CBK297730] | 85.8
O=C(O)c1csc(S(=O)(=O)Nc2ccc(Br)cc2Cl)c1 [CBK297731] | 101
Cn1ncc2c(SCc3cc4c(cc3Br)OCCO4)ncnc21 [CBK297732] | 104
COc1ccc(CC(=O)N2CCN(C(C)c3nc4ccccc4s3)CC2)cc1F (stereo not shown) [CBK297733] | 95.9
CCN(c1ccc(NC(=O)Cn2nc(C(=O)O)c3ccccc3c2=O)cc1)C(C)C [CBK297734] | 94.5
CN(C)C(=O)CCc1nc(-c2ccccn2)no1 [CBK297735] | 88.3
NC(=O)c1ccc(C(=O)OCc2ccc(-c3ccccc3)cc2)cc1 [CBK297736] | 95.7
Cc1cc(C(=O)Nc2nncs2)c2ccc(F)cc2n1 [CBK297738] | 85.3

Compound | viability at 28.5 h, 10 µM [%]
O=C(NC1CCN(c2ncccn2)CC1)c1cccnc1O [CBK297739] | 99.7
CCCc1n[nH]c(=S)n1CC(=O)Nc1cc(NC(=O)C2CC2)ccc1C [CBK297740] | 106
CCCc1n[nH]c(=S)n1CC(=O)Nc1cccc(-n2ncc(C(=O)OCC)c2C)c1 [CBK297746] | 90.2
CC(=O)N1CCC(NC(=O)c2cccc(C(N)=O)c2)CC1 [CBK297747] | 115
Cc1ccc(C(=O)NCc2cccc(COCc3ccco3)c2)cc1F [CBK297750] | 83.5
Cc1ccc(C(=O)NCC(O)c2ccc(F)cc2F)cn1 (stereo not shown) [CBK297751] | 89.8
Cc1ccccc1OCC(=O)NCC1(N2CCCCC2)CCCCC1 [CBK297752] | 89.5
O=C(Nc1ccc(N2CCCCC2)c2ccncc12)c1cccc(-n2cnnn2)c1 [CBK297754] | 85.8
COc1cc(CNC(=O)c2cccnc2Sc2ccc(Cl)cc2)ccn1 [CBK297755] | 108
CCn1c(SCc2cc(C)no2)nnc1C1CC1 [CBK297758] | 102
CC1CC(C)CN(C(=O)c2ccccc2NC(=O)C2CC(=O)Nc3ccccc32)C1 (stereo not shown) [CBK297760] | 81.8
C=CCn1c(-c2sc(NC(=O)c3ccc(CNC(=O)NC(C)C)cc3)nc2C)n[nH]c1=S [CBK297764] | 111
O=C1CC(C(=O)Nc2ccccn2)c2ccccc2N1 (stereo not shown) [CBK297771] | 101
O=C(Nc1ccnn1Cc1ccccc1)C1CC(c2cccc(F)c2)=NO1 (stereo not shown) [CBK297772] | 112
CN(C)c1ncccc1CNC(=O)c1ccccn1 [CBK297774] | 81.5
Cc1ccc(NS(=O)(=O)c2cccc(C(=O)NS(=O)(=O)c3ccc(F)cc3F)c2)cc1 [CBK297776] | 70.5
CC(=O)Nc1ccc(C(=O)NC(c2cccs2)C2CCCC2)cc1 (stereo not shown) [CBK297777] | 84.1
CN(C(=O)c1cc(O)nc2ccccc12)c1nccs1 [CBK297778] | 105
CCC(CNC(=O)c1cc(-c2ccco2)nc2c(C(N)=O)ncn12)c1ccccc1 (stereo not shown) [CBK297779] | 94.2
COc1ccc(C2CC(c3ccc(NS(C)(=O)=O)cc3)=NN2C(=O)CCCC(=O)O)cc1 (stereo not shown) [CBK297780] | 116
COc1ccc(OC)c(C2CC(c3ccc(NS(C)(=O)=O)cc3)=NN2C(=O)CCC(=O)O)c1 (stereo not shown) [CBK297781] | 107

Compound | viability at 28.5 h, 10 µM [%]
CCN(CC)S(=O)(=O)c1ccc(C)c(NS(=O)(=O)c2cc(C(=O)O)n(C)c2)c1 [CBK297782] | 99.5
C=CCn1c(Cc2csc(NC(=O)c3cnc(SC)n3-c3ccccc3)n2)n[nH]c1=S [CBK297786] | 84.3
CC(=O)Nc1ccc(CNc2ccc(C#N)cn2)cc1 [CBK297790] | 97.7
CN(c1ccccc1)S(=O)(=O)c1cccc(NC(=O)Cc2csc(-c3ccco3)n2)c1 [CBK297792] | 75.9
O=C(c1ccc(-n2cccn2)nc1)N1CCN(c2ccccc2O)CC1 [CBK297794] | 83.8
CC1CC1C(=O)NCC(=O)Nc1nc2ccc(OC(F)(F)F)cc2s1 (stereo not shown) [CBK297874] | 98.3
CC(C)C(NC(=O)CSc1n[nH]c(=O)n1Cc1ccccc1)c1ccc2c(c1)OCCCO2 (stereo not shown) [CBK297875] | 106
CN(Cc1ccc2c(c1)OCCO2)C(=O)CSc1n[nH]c(=O)n1Cc1ccccc1 [CBK297876] | 82.1
COc1ccc(-c2nnc(SC(C)C(=O)Nc3cc(C)no3)n2CC2CCCO2)cc1 (stereo not shown) [CBK297879] | 84.8
CCn1c(-c2ccc3c(c2)OCCO3)cnc1SCC(=O)c1cc(C)[nH]c1C [CBK297880] | 89.4
COc1cc(C=Cc2nc3cc(Cl)ccc3s2)ccc1OCC(=O)O [CBK297886] | 96.4
Cc1ccc(-c2n[nH]c(=S)n2CC(=O)N2CCC(C(=O)Nc3ccc4c(c3)OCO4)CC2)cc1 [CBK297887] | 82
C=CCn1c(Cc2csc(NC(=O)CCc3nc4ccccc4c(=O)[nH]3)n2)n[nH]c1=S [CBK297888] | 88.8
Cc1ccc(C(=O)N2CC=C(c3c[nH]c4ncccc34)CC2)cn1 [CBK297889] | 103
C=CCn1c(Cc2csc(NC(=O)c3cccc(NC(C)=O)c3)n2)n[nH]c1=S [CBK297891] | 83.4
CC1CCN(Cc2csc(NC(=O)CCn3c(-c4cccs4)n[nH]c3=S)n2)CC1 [CBK297892] | 92.2
CCOc1ccc(-c2n[nH]c(=S)n2CCC(=O)N2CCCN(Cc3ccc(C#N)cc3)CC2)cc1 [CBK297893] | 95.8
Cc1cccc(NC(=O)CSCc2ccc(Cl)s2)n1 [CBK297895] | 90.4
COc1ccc(C(NC(=O)c2cc3ccccc3[nH]2)C2CC2)cc1 (stereo not shown) [CBK297896] | 97.9
